Key:
[1] = target: T1, HIV-1 RT enzyme (wild type) (Human immunodeficiency virus type 1 group M subtype B, UniProt P04585); test: Reverse transcriptase (RT) enzymatic assay (IC50), PicoGreen fluorescence, wild type; assay type: biochemical; conditions: RT enzymatic assay, wild type; read-out: IC50 WT
T1 construct: The reverse transcriptase (RT) enzyme assay has been adapted to a 96-well microtiter plate format
Description: (§1) Reverse Transcriptase (RT) Assays Enzymatic Assay (IC50)
The enzymatic assay employed is described as follows: The reverse transcriptase (RT) enzyme assay has been adapted to a 96-well microtiter plate format and uses PicoGreen™ as a fluorescent intercalator. More explicitly, the HIV-1 RT enzyme was thawed and appropriately diluted into Tris/HCl 50 mM pH 7.8 containing NaCl 60 mM, MgCl2∘6H2O 2 mM, DTT 6 mM, GSH 2 mM and 0.02% w/v Chaps to give ≈10 nM enzyme. […] The plate was pre-incubated for 15 minutes at room temperature before proceeding to the next step. […] Then the enzymatic reaction was initiated by addition of 20 μL of substrate solution. […] After addition of the substrate cocktail, the plate was covered with a plastic seal and incubated for 50 minutes at 37° C. in a dry incubator. The reaction was then quenched by addition of 5 μL of EDTA 0.5 M. The plate was shaken for 30 seconds at medium speed and incubated for 5 minutes at room temperature. Then 160 μL of PicoGreen™ 1:400 dilution from commercial stock (diluted in Tris 20 mM pH 7.5 with EDTA 1 mM) was added and the plate was shaken for 30 seconds and incubated for 10 minutes at room temperature. […] Each row contained at its extremities a blank and a control well.
(§2) Table legend: A=>100; B=100-50; C=<50; NT=not tested

[2] = target: T2, HIV-1 RT resistant mutant K103N/Y181C (Human immunodeficiency virus type 1 group M subtype B, UniProt P04585, K690N/Y768C); test: Reverse transcriptase (RT) enzymatic assay (IC50), PicoGreen fluorescence, resistant mutant; assay type: biochemical
T2 construct: The reverse transcriptase (RT) enzyme assay has been adapted to a 96-well microtiter plate format
Description: as §1
The enzymatic assay employed is described as follows: The reverse transcriptase (RT) enzyme assay has been adapted to a 96-well microtiter plate format and uses PicoGreen™ as a fluorescent intercalator. More explicitly, the HIV-1 RT enzyme was thawed and appropriately diluted into Tris/HCl 50 mM pH 7.8 containing NaCl 60 mM, MgCl2∘6H2O 2 mM, DTT 6 mM, GSH 2 mM and 0.02% w/v Chaps to give ≈10 nM enzyme. To 10 μL of this enzyme solution was added 10 μL of inhibitor solution (40 μM to […] inhibitor in the same assay buffer as above containing 4% v/v DMSO). The plate was pre-incubated for 15 minutes at room temperature before proceeding to the next step. In this pre-incubation step, the highest and lowest inhibitor concentrations were 20 μM and 1.016 nM respectively and the concentration of DMSO was 2% v/v. Then the enzymatic reaction was initiated by addition of 20 μL of substrate solution. The final reaction mixture contained Tris/HCl 50 mM pH 7.8, NaCl 60 mM, MgCl2∘6H2O 2 mM, DTT 6 mM, GSH 2 mM, CHAPS 0.02% w/v, DMSO 1% v/v, poly rC 45 nM, dG15 4.5 nM, dGTP 3.6 μM, and ≈2.5 nM enzyme. In this incubation step, the highest and lowest inhibitor concentrations were 10 μM and 0.508 nM respectively. After addition of the substrate cocktail, the plate was covered with a plastic seal and incubated for 50 minutes at 37° C. in a dry incubator. The reaction was then quenched by addition of 5 μL of EDTA 0.5 M. The plate was shaken for 30 seconds at medium speed and incubated for 5 minutes at room temperature. Then 160 μL of PicoGreen™ 1:400 dilution from commercial stock (diluted in Tris 20 mM pH 7.5 with EDTA 1 mM) was added and the plate was shaken for 30 seconds and incubated for 10 minutes at room temperature. The plate was then analyzed using a POLARstar Galaxy fluorimeter (BMG Labtechnologies) with λex and λem of 485 nm and 520 nm respectively. […] Each row contained at its extremities a blank and a control well.
as §2

[3] = tested on: HIV-1 (wild type) in C8166 LTRluc cells; test: C8166 HIV-1 luciferase assay (EC50), wild type; assay type: cell-based; conditions: Human immunodeficiency virus 1, C8166 HIV-1 luciferase assay (no *)
From the text: (§3) C8166 HIV-1 Luciferase Assay (EC50)
(§4) Plasmid: pGL3 Basic LTR/TAR #12
Plasmid is the pGL3 Basic Vector (a promoterless luciferase expression vector from Promega catalogue #E1751) with the addition of HIV-1 H×B2 LTR sequence from nucleotide −138 to +80 (Sca1-HindIII) upstream of the luciferase gene and the gene for blasticidine resistance cloned in.
(§5) C8166 cells are a human T-lymphotrophic virus type 1 immortalized but nonexpressing line of cord blood lymphocytes and are highly permissive to HIV-1 infection. The reporter cells were made by electroporating C8166 cells with pGL3 Basic LTR/TAR and then selecting positive clones with blasticidine. The clone C8166-LTRluc #A8-F5-G7 was selected by 3 consecutive rounds of limiting dilution under blasticidine selection.
(§6) Media: Complete media consisting of: RPMI 1640+10% FBS+10^−5 M
(§7) β-mercaptoethanol+10 μg/ml gentamycin. Cultures are maintained in complete media with 5 μg/ml blasticidine, however, selection is removed for the assay.
(§8) Luciferase Assay Protocol
(§9) Serial dilutions of HIV-1 inhibitors compounds are prepared in complete media from 10 mM DMSO stock solutions. Eleven serial dilutions of 2.5× are made at 8× desired final concentration in a 1 ml deep well titer plate (96 wells). The 12th well contains complete media with no inhibitor and serves as the positive control. All samples contain the same concentration of DMSO (≦0.1% DMSO). A 25 μl aliquot of inhibitor is added, to triplicate wells, of a 96 well tissue culture treated clear view black microtiter plate (Corning Costar catalogue # 3904). The last row is reserved for uninfected C8166 LTRluc cells to serve as the background blank control and the first row is media alone.
(§10) Count C8166 LTRluc cells and place in a minimal volume of complete RPMI 1640 in a tissue culture flask (ex. 30×10^6 cells in 10 ml media/25 cm^2 flask). Infect cells with HIV-1 at a moi of 0.005. Incubate cells for 1.5 hours at 37° C. on a rotating rack in a 5% CO2 incubator. Resuspend cells in complete RPMI to give a final concentration of 25,000-cells/175 μl. Add 175 μl of cell mix to wells of 96 well microtiter plate containing 25 μl 8× inhibitors. Add 25,000 uninfected C8166-LTRluc cells/well in 200 μl complete RPMI to last row for background control. Incubate cells at 37° C. in 5% CO2 incubator for 3 days.
(§11) Add 50 μl Steady Glo (luciferase substrate T1/2=5 hours Promega catalogue # E2520) to each well of the 96 well plate. Determine the relative light units (RLU) of luciferase using the BMG LUMlstar Galaxy luminometer. Plates are read from the bottom for 2 seconds per well with a gain of 240.
(§12) The level of inhibition (% inhibition) of each well containing inhibitor was calculated with the following equation: […]
The calculated % inhibition values were then used to determine EC50, slope factor (n) and maximum inhibition (Imax) by the non-linear regression routine NLIN procedure of SAS using the following equation: […]
The results are listed in Table 9 as IC50(nM) and EC50 (nM).
as §2

[4] = tested on: HIV-1 resistant mutant K103N/Y181C in C8166 LTRluc cells; test: C8166 HIV-1 luciferase assay (EC50), resistant mutant; assay type: cell-based; conditions: Human immunodeficiency virus 1, C8166, read-out: EC50 K103N/Y181C
From the text: as §3, §4, §5, §6, §7, §8
as §9, with “Eleven” for “Serial dilutions of HIV-1 inhibitors compounds are prepared in complete media from 10 mM DMSO stock solutions. Eleven”
as §10, with “Infect cells with HIV-1 at a moi of 0.005.” left out
as §11, §12
The calculated % inhibition values were then used to determine EC50, slope factor (n) and maximum inhibition (Imax) by the non-linear regression routine NLIN procedure of SAS using the following equation:
as §2

| SMILES | IC50 [1] [nM] | IC50 [2] [nM] | EC50 [3] [nM] | EC50 [4] [nM] |
| --- | --- | --- | --- | --- |
| O=C(CSc1nnnn1-c1ccccc1)Nc1ccccc1[N+](=O)[O-] [Entry 108] | > 100 | > 100 | – | – |
| CCc1ccccc1-n1nnnc1SCC(=O)Nc1ccccc1[N+](=O)[O-] [Entry 110] | > 100 | > 100 | – | – |
| CC(C)c1ccccc1-n1nnnc1SCC(=O)Nc1ccccc1[N+](=O)[O-] [Entry 112] | > 100 | > 100 | – | – |
| O=C(CSc1nnnn1-c1cccc(Cl)c1)Nc1ccccc1[N+](=O)[O-] [Entry 119] | > 100 | > 100 | – | – |
| O=C(CSc1nnnn1-c1ccc(Cl)cc1Cl)Nc1ccccc1[N+](=O)[O-] [Entry 126] | > 100 | > 100 | – | – |
| O=C(CSc1nnnn1-c1ccc(Cl)c(C(F)(F)F)c1)Nc1ccccc1[N+](=O)[O-] [Entry 137] | > 100 | > 100 | – | – |
| CC(C)c1ccc(-n2nnnc2SCC(=O)Nc2ccccc2[N+](=O)[O-])cc1 [Entry 142] | – | > 100 | < 50 | > 100 |
| CCN(CC)c1ccc(-n2nnnc2SCC(=O)Nc2ccccc2[N+](=O)[O-])cc1 [Entry 143] | – | > 100 | < 50 | > 100 |
| O=C(CSc1nnnn1-c1cccc2ccccc12)Nc1ccccc1 [Entry 201] | > 100 | > 100 | – | – |
| Cc1ccccc1NC(=O)CSc1nnnn1-c1cccc2ccccc12 [Entry 202] | > 100 | > 100 | – | – |
| O=C(CSc1nnnn1-c1cccc2ccccc12)Nc1ccccc1Cl [Entry 208, N-(2-Chlorophenyl)-2-{{1-(1-naphthalenyl)-1H-tetrazol-5-yl}thio}acetamide] | – | – | < 50 | > 100 |
| O=C(CSc1nnnn1-c1cccc2ccccc12)Nc1ccccc1O [Entry 211] | > 100 | – | < 50 | > 100 |
| COc1ccc(NC(=O)CSc2nnnn2-c2cccc3ccccc23)c(Cl)c1 [Entry 237] | < 50 | > 100 | < 50 | – |
| Cc1ccc(C)c(NC(=O)CSc2nnnn2-c2cccc3ccccc23)c1 [Entry 240] | > 100 | > 100 | – | – |
| OC(COc1ccccc1Cl)CSc1nnnn1-c1cccc2ccccc12 (stereo not shown) [Entry 325] | > 100 | > 100 | – | – |
| O=C(CSc1ccccc1-c1cccc2ccccc12)Nc1ccccc1Cl [Entry 406, 2-{{2-(1-Naphthalenyl)phenyl}thio}-N-(2-chorophenyl)acetamide] | < 50 | > 100 | > 100 | – |
| O=C(CSc1nc2ccccc2n1-c1cccc2ccccc12)Nc1ccccc1[N+](=O)[O-] [Entry 411] | > 100 | > 100 | – | – |
| O=C(COc1ccccc1-c1ccccc1)Nc1ccccc1[N+](=O)[O-] [Entry 413] | > 100 | > 100 | – | – |
| COC(=O)c1ccc(NC(=O)CSc2ccccc2-c2ccc(C)cc2Cl)c(Cl)c1 [Entry 418] | < 50 | > 100 | 50 to 100 | – |
| Cc1ccc(-c2ccccc2SCC(=O)Nc2ccc(C(=O)O)cc2Cl)c(Cl)c1 [Entry 419] | < 50 | > 100 | 50 to 100 | – |
| CCc1nnc(SCC(=O)Nc2ccccc2[N+](=O)[O-])n1-c1cccc2ccccc12 [Entry 425] | – | > 100 | < 50 | > 100 |
| Cc1ccc(-n2c(C)nnc2SCC(=O)Nc2ccccc2[N+](=O)[O-])c(Cl)c1 [Entry 427] | – | > 100 | < 50 | > 100 |
| Cc1ccc(-n2c(C)nnc2SCC(=O)Nc2ccc(-c3ccccc3)cc2Cl)c(Cl)c1 [Entry 428] | – | > 100 | < 50 | > 100 |
| Cc1ccc(-n2nnnc2SCC(=O)Nc2ccccc2Cl)c(Cl)c1 [Entry 501] | – | – | < 50 | > 100 |
| Cc1ccc(NC(=O)CSc2nnnn2-c2ccc(C)cc2Cl)c(Cl)c1 [Entry 502] | < 50 | > 100 | < 50 | – |
| COC(=O)c1ccc(NC(=O)CSc2nnnn2-c2ccc(C)cc2Cl)c([N+](=O)[O-])c1 [Entry 506] | < 50 | > 100 | – | – |
| CC(C)(C)c1ccc(-n2nnnc2SCC(=O)Nc2ccc(S(C)(=O)=O)cc2Cl)c(Cl)c1 [Entry 603] | – | – | < 50 | < 50 |
| Cc1ccc(-n2nnnc2SCC(=O)Nc2ccccc2Cl)c(Br)c1 [Entry 701] | < 50 | > 100 | – | – |
